Experimental data: publication PMC3723861, “Nitrile hydratase of Rhodococcus erythropolis: characterization of the enzyme and the use of whole cells for biotransformation of nitriles” (3 Biotech, 2012)

Test system: T1, nitrile hydratase
T1 construct: gene nthA; native intracellular enzyme purified from R. erythropolis MTCC 1526 grown with CoCl2; subunits about 29 kDa (alpha) and 30 kDa (beta); native 65 kDa
Experiment: nicotinamide formation by HPLC, Lineweaver-Burk plot
Format: biochemical, Rhodococcus erythropolis
Details: pH 7.0, 20 mM phosphate buffer, 25 °C (Fig. 6 legend says 20 °C); 0.2-2.0 mM substrate

Compound `N#Cc1cccnc1` [3-cyanopyridine] has a Km of 624 µM.
